Patent US11407736B2 (priority 2019, dated 2022)
Like-named read-outs stand apart in the source and are kept apart here.

How the values were obtained:
[1] = target: RIPK1 (Homo sapiens (Human), UniProt Q13546); assay: RIPK1 ADP-Glo biochemical kinase assay
Protocol: The final reaction volume was 5.0ul.
Adding 5 μl of ADP-Glo™ terminated the reaction.

[2] = system: L929 cells; assay: L929 cell necroptosis assay (TNFa + zVAD, CellTiter-Glo); assay type: cell-based, murine; details: Mus musculus, L929, L929 cells, TNFa + zVAD; read-out: L929-CTG-recovery, L929, TNFa + zVAD (IC50)
In short: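 Necroptosis was read as CellTiter-Glo luminescence 18 hours after TNFa stimulation at 37° C, 5% CO2. Prior to that, L929 cells (10K/well, plated 18 h) received fresh medium with 40 uM zVAD-fmk plus 4-fold serially diluted compound.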

[3] = system: U937 cells; assay: U937 cell necroptosis assay (TNFa + zVAD, CellTiter-Glo); assay type: cell-based, human; details: Homo sapiens, U-937, U937 cells, TNFa + zVAD; read-out: U937 Zvad TNF CTG Recovery, U937, TNFa + zVAD (IC50)
In short: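 Necroptosis was induced with TNFa at 2 ng/mL final for 18 h at 37 °C, following 1 h compound pre-incubation in the presence of zVAD-fmk (60 uM for U937 plating medium, 40 uM for L929 medium). Luminescent CellTiter-Glo signal gave relative cell survival.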

[4] = read-out: RIPK1 ADP-Glo Kinase (IC50)

Sequence of RIPK1 (Q13546 whole entry, species assumed): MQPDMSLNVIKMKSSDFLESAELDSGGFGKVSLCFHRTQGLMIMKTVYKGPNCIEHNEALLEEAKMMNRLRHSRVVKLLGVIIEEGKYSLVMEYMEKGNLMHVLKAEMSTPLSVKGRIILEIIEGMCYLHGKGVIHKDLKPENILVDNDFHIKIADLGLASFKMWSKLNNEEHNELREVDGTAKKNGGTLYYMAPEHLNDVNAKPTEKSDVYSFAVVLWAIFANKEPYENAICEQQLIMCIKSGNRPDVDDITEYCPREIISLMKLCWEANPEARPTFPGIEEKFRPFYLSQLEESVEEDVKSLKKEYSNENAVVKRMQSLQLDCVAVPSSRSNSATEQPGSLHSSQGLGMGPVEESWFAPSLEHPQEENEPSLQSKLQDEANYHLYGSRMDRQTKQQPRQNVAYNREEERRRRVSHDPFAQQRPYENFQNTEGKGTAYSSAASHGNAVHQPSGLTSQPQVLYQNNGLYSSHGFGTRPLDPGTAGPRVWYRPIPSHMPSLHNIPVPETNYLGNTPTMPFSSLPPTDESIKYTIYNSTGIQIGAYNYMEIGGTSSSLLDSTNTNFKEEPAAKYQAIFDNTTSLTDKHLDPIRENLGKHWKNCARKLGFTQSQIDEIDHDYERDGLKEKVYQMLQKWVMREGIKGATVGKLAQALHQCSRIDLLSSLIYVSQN

Compound	IC50 [1, 4]	IC50 [2]	IC50 [3]	IC50 [1]
CN1C(=O)[C@@H](NC(=O)c2cc(Oc3ccccc3F)ccn2)COc2ccc(C#CC(C)(C)C)cc21 [Compound I-102, (S)—N-(7-(3,3-dimethylbut-1-yn-1-yl)-5-methyl-4-oxo-2,3,4,5-tetrahydrobenzo[b][1,4]oxazepin-3-yl)-4-(2-fluorophenoxy)picolinamide]	383 nM	397 nM	27.3 nM	–
CN1C(=O)[C@@H](NC(=O)c2cc(Oc3ccccc3F)ccn2)COc2ccc(C#CC(C)(C)O)cc21 [Compound I-103, (S)-4-(2-fluorophenoxy)-N-(7-(3-hydroxy-3-methylbut-1-yn-1-yl)-5-methyl-4-oxo-2,3,4,5-tetrahydrobenzo[b][1,4]oxazepin-3-yl)picolinamide]	49 nM	67.4 nM	1.5 nM	–
CN1C(=O)[C@@H](NC(=O)c2cc(Oc3ccc(F)cc3F)ccn2)COc2ccc(C#CC(C)(C)C)cc21 [Compound I-104, (S)-4-(2,4-difluorophenoxy)-N-(7-(3,3-dimethylbut-1-yn-1-yl)-5-methyl-4-oxo-2,3,4,5-tetrahydrobenzo[b][1,4]oxazepin-3-yl)picolinamide]	581 nM	1820 nM	224 nM	–
CN1C(=O)[C@@H](NC(=O)c2cc(Oc3ccc(F)cc3F)ccn2)COc2ccc(C#CC(C)(C)O)cc21 [Compound I-105, (S)-4-(2,4-difluorophenoxy)-N-(7-(3-hydroxy-3-methylbut-1-yn-1-yl)-5-methyl-4-oxo-2,3,4,5-tetrahydrobenzo[b][1,4]oxazepin-3-yl)picolinamide]	31.2 nM	254 nM	9.3 nM	–
CN1C(=O)[C@@H](NC(=O)c2cc(Oc3cccc(F)c3)ccn2)COc2ccc(C#CC(C)(C)C)cc21 [Compound I-106, (S)—N-(7-(3,3-dimethylbut-1-yn-1-yl)-5-methyl-4-oxo-2,3,4,5-tetrahydrobenzo[b][1,4]oxazepin-3-yl)-4-(3-fluorophenoxy)picolinamide]	582 nM	481 nM	5.5 nM	–
CN1C(=O)[C@@H](NC(=O)c2cc(Oc3cccc(F)c3)ccn2)COc2ccc(C#CC(C)(C)O)cc21 [Compound I-107, (S)-4-(3-fluorophenoxy)-N-(7-(3-hydroxy-3-methylbut-1-yn-1-yl)-5-methyl-4-oxo-2,3,4,5-tetrahydrobenzo[b][1,4]oxazepin-3-yl)picolinamide]	23.1 nM	161 nM	1.3 nM	–
CC(C)CCc1ccc2c(c1)N(C)C(=O)[C@@H](NC(=O)c1cc(Oc3ccccc3)ccn1)CO2 [Compound I-108, (S)—N-(7-isopentyl-5-methyl-4-oxo-2,3,4,5-tetrahydrobenzo[b][1,4]oxazepin-3-yl)-4-phenoxypicolinamide]	314 nM	2310 nM	8.8 nM	–
CN1C(=O)[C@@H](NC(=O)c2cc(Oc3ccccc3)ccn2)COc2ccc(C#CC(C)(C)CO)cc21 [Compound I-109, (S)—N-(7-(4-hydroxy-3,3-dimethylbut-1-yn-1-yl)-5-methyl-4-oxo-2,3,4,5-tetrahydrobenzo[b][1,4]oxazepin-3-yl)-4-phenoxypicolinamide]	–	24.3 nM	0.4 nM	32.1 nM
CN1C(=O)[C@@H](NC(=O)c2cc(Oc3ccc(F)cc3)ccn2)COc2ccc(C#CC3(O)COC3)cc21 [Compound I-111, (S)-4-(4-fluorophenoxy)-N-(7-((3-hydroxyoxetan-3-yl)ethynyl)-5-methyl-4-oxo-2,3,4,5-tetrahydrobenzo[b][1,4]oxazepin-3-yl)picolinamide]	21.8 nM	99.9 nM	3.1 nM	–
CN1C(=O)[C@@H](NC(=O)c2cc(Oc3ccccc3F)ccn2)COc2ccc(C#CC3(O)COC3)cc21 [Compound I-112, (S)-4-(2-fluorophenoxy)-N-(7-((3-hydroxyoxetan-3-yl)ethynyl)-5-methyl-4-oxo-2,3,4,5-tetrahydrobenzo[b][1,4]oxazepin-3-yl)picolinamide]	15.1 nM	14.2 nM	1.1 nM	–
CN1C(=O)[C@@H](NC(=O)c2cc(Oc3ccc(F)cc3F)ccn2)COc2ccc(C#CC3(O)COC3)cc21 [Compound I-114, (S)-4-(2,4-difluorophenoxy)-N-(7-((3-hydroxyoxetan-3-yl)ethynyl)-5-methyl-4-oxo-2,3,4,5-tetrahydrobenzo[b][1,4]oxazepin-3-yl)picolinamide]	20.2 nM	90.4 nM	4.7 nM	–
CN1C(=O)[C@@H](NC(=O)c2cc(Oc3cccc(F)c3)ccn2)COc2ccc(C#CC3(O)COC3)cc21 [Compound I-115, (S)-4-(3-fluorophenoxy)-N-(7-((3-hydroxyoxetan-3-yl)ethynyl)-5-methyl-4-oxo-2,3,4,5-tetrahydrobenzo[b][1,4]oxazepin-3-yl)picolinamide]	24 nM	49.1 nM	0.8 nM	–
CN1C(=O)[C@@H](NC(=O)c2cc(Oc3ccccc3)ccn2)COc2ccc(C#CCN3CCCC3)cc21 [Compound I-116, (S)—N-(5-methyl-4-oxo-7-(3-(pyrolidin-1-yl)prop-1-yn-1-yl)-2,3,4,5-tetrahydrobenzo[b][1,4]oxazepin-3-yl)-4-phenoxypicolinamide]	23.4 nM	136 nM	0.7 nM	–
CN1C(=O)[C@@H](NC(=O)c2cc(Oc3ccccc3)ccn2)COc2ccc(C#CCN3CCOCC3)cc21 [Compound I-117, (S)—N-(5-methyl-7-(3-morpholinoprop-1-yn-1-yl)-4-oxo-2,3,4,5-tetrahydrobenzo[b][1,4]oxazepin-3-yl)-4-phenoxypicolinamide]	31.6 nM	11.2 nM	0.2 nM	–
CN1C(=O)[C@@H](NC(=O)c2cc(Oc3c(F)cccc3F)ccn2)COc2ccc(C#CC(C)(C)O)cc21 [Compound I-118, (S)-4-(2,6-difluorophenoxy)-N-(7-(3-hydroxy-3-methylbut-1-yn-1-yl)-5-methyl-4-oxo-2,3,4,5-tetrahydrobenzo[b][1,4]oxazepin-3-yl)picolinamide]	27.6 nM	83 nM	1 nM	–
Cc1cc(Oc2ccccc2)cc(C(=O)N[C@H]2COc3ccc(C#CC(C)(C)O)cc3N(C)C2=O)n1 [Compound I-119, (S)—N-(7-(3-hydroxy-3-methylbut-1-yn-1-yl)-5-methyl-4-oxo-2,3,4,5-tetrahydrobenzo[b][1,4]oxazepin-3-yl)-6-methyl-4-phenoxypicolinamide]	59.8 nM	4050 nM	14.6 nM	–
CN1C(=O)[C@@H](NC(=O)c2cc(Oc3ccccc3)ccn2)COc2ccc(C#CC3(O)CCC3)cc21 [Compound I-120, (S)—N-(7-((1-hydroxycyclobutyl)ethynyl)-5-methyl-4-oxo-2,3,4,5-tetrahydrobenzo[b][1,4]oxazepin-3-yl)-4-phenoxypicolinamide]	29.6 nM	61.5 nM	0.5 nM	–
CN1C(=O)[C@@H](NC(=O)c2cc(Oc3ccccc3)ccn2)COc2ccc(C#CC3(O)CCOCC3)cc21 [Compound I-123, (S)—N-(7-((4-hydroxytetrahydro-2H-pyran-4-yl)ethynyl)-5-methyl-4-oxo-2,3,4,5-tetrahydrobenzo[b][1,4]oxazepin-3-yl)-4-phenoxypicolinamide]	35.7 nM	53.5 nM	0.6 nM	–
Cc1cccc(C)c1Oc1ccnc(C(=O)N[C@H]2COc3ccc(C#CC(C)(C)O)cc3N(C)C2=O)c1 [Compound I-124, (S)-4-(2,6-dimethylphenoxy)-N-(7-(3-hydroxy-3-methylbut-1-yn-1-yl)-5-methyl-4-oxo-2,3,4,5-tetrahydrobenzo[b][1,4]oxazepin-3-yl)picolinamide]	93.5 nM	2120 nM	88.7 nM	–
CN1C(=O)[C@@H](NC(=O)c2cc(Cc3ccc(F)cc3)ccn2)COc2ccc(C#CC(C)(C)O)cc21 [Compound I-125, (S)-4-(4-fluorobenzyl)-N-(7-(3-hydroxy-3-methylbut-1-yn-1-yl)-5-methyl-4-oxo-2,3,4,5-tetrahydrobenzo[b][1,4]oxazepin-3-yl)picolinamide]	26.2 nM	116 nM	9.8 nM	–
CN1C(=O)[C@@H](NC(=O)c2cc(Cc3ccc(F)cc3)ccn2)COc2ccc(C#CC3(O)COC3)cc21 [Compound I-126, (S)-4-(4-fluorobenzyl)-N-(7-((3-hydroxyoxetan-3-yl)ethynyl)-5-methyl-4-oxo-2,3,4,5-tetrahydrobenzo[b][1,4]oxazepin-3-yl)picolinamide]	24.6 nM	55.3 nM	3.5 nM	–
COC1(C#Cc2ccc3c(c2)N(C)C(=O)[C@@H](NC(=O)c2cc(Oc4ccccc4)ccn2)CO3)COC1 [Compound I-128, (S)—N-(7-((3-methoxyoxetan-3-yl)ethynyl)-5-methyl-4-oxo-2,3,4,5-tetrahydrobenzo[b][1,4]oxazepin-3-yl)-4-phenoxypicolinamide]	19.7 nM	42.2 nM	0.6 nM	–
CN1C(=O)[C@@H](NC(=O)c2cc(Oc3ccccc3)ccn2)COc2ccc(C#CC3(F)COC3)cc21 [Compound I-129, (S)—N-(7-((3-fluorooxetan-3-yl)ethynyl)-5-methyl-4-oxo-2,3,4,5-tetrahydrobenzo[b][1,4]oxazepin-3-yl)-4-phenoxypicolinamide]	35.2 nM	24.1 nM	0.7 nM	–
CN1C(=O)[C@@H](NC(=O)c2cc(Oc3ccccc3)ccn2)COc2ccc(C#CC3(OC(=O)NCCCN4CCOCC4)COC3)cc21 [Compound I-130]	30.8 nM	89.5 nM	1.5 nM	–
